Data on 33 compounds can be found in ChEMBL document CHEMBL2331378, “Synthesis and discovery of novel piperidone-grafted mono- and bis-spirooxindole-hexahydropyrrolizines as potent cholinesterase inhibitors” (Bioorg Med Chem, 2013).

One test concerns the target Cholinesterase (Equus caballus, UniProt P81908). The test can be described thus: Inhibition of equine serum BuChE using S-butyrylthiocholine chloride substrate by Ellman's method based spectrophotometry. For orientation: Ellman's reagent forms a yellow product with free thiols.
A short description of test [1]: Selectivity index, ratio of IC50 for equine serum BuChE to IC50 for AChE (unknown origin).
Test [2] in a line: Selectivity index, ratio of IC50 for AChE (unknown origin) to IC50 for equine serum BuChE.
In a further test the target is Acetylcholinesterase (Homo sapiens, UniProt P22303). The test can be described thus: Inhibition of AChE (unknown origin) using acetylthiocholine iodide substrate by Ellman's method based spectrophotometry.
Sequence of Acetylcholinesterase (P22303 whole entry): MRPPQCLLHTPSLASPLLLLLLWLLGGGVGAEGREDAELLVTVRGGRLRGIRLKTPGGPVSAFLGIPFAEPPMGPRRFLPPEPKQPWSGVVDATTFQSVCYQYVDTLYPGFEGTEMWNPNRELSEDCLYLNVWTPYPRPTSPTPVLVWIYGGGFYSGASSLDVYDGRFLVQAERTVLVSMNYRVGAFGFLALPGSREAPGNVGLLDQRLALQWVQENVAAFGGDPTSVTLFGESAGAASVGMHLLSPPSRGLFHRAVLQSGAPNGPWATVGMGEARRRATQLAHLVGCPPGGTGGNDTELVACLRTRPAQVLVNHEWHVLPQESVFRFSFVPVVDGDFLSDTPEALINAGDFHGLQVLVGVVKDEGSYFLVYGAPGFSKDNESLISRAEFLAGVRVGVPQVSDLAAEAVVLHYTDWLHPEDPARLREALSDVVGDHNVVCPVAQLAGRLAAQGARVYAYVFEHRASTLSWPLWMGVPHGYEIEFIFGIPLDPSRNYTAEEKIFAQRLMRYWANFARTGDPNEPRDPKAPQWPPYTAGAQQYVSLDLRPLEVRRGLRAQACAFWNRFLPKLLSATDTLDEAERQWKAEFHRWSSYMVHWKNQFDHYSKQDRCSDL

Sequence of Cholinesterase (P81908 whole entry): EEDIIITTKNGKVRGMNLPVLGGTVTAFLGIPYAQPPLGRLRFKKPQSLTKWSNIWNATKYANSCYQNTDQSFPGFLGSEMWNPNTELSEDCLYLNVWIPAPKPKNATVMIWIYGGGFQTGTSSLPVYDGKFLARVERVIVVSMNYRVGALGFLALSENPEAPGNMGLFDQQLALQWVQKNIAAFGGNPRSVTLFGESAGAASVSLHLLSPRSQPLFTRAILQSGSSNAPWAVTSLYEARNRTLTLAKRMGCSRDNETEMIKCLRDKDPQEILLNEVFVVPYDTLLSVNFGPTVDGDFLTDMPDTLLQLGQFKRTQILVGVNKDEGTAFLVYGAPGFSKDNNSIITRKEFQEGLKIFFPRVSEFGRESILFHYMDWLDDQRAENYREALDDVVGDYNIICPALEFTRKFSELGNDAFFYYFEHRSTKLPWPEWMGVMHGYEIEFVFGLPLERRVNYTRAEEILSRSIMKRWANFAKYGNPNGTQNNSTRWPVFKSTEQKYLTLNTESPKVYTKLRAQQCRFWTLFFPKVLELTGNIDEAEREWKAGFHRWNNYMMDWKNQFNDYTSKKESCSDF

`C=CC(=O)N1C/C(=C\c2ccc(Cl)cc2)C(=O)/C(=C/c2ccc(Cl)cc2)C1`: the figures for the IC50 on Cholinesterase and against Acetylcholinesterase were 38.2 µM and 22 µM, respectively. The Ratio IC50 in test [1] stood at 1.73; in test [2] it was 0.58.

`C=CC(=O)N1C/C(=C\c2ccccc2)C(=O)/C(=C/c2ccccc2)C1`: the IC50 (in general, the concentration that gives 50% inhibition) against Cholinesterase came to 22.1 µM; at Acetylcholinesterase, 17.7 µM. Moreover, the Ratio IC50 worked out at 1.25 in test [1] and 0.8 in test [2].

Take `C=CC(=O)N1C/C(=C\c2ccccc2Cl)C(=O)/C(=C/c2ccccc2Cl)C1`: the IC50 at Cholinesterase came to 36.6 µM; at Acetylcholinesterase, 16.3 µM. Besides, the results for the Ratio IC50 in test [1] and in test [2] were 2.24 and 0.45, respectively.

For `C=CC(=O)N1C/C(=C\c2ccccc2F)C(=O)/C(=C/c2ccccc2F)C1`, the IC50 against Cholinesterase was 54 µM; against Acetylcholinesterase it was 11.8 µM. In addition, the Ratio IC50 in test [1] worked out at 4.58; in test [2], 0.22.

As to `C=CC(=O)N1C/C(=C\c2cccc([N+](=O)[O-])c2)C(=O)/C(=C/c2cccc([N+](=O)[O-])c2)C1`, the values for the IC50 against Cholinesterase and against Acetylcholinesterase were 51.2 µM and 9.76 µM, respectively. Moreover, the Ratio IC50 in test [1] worked out at 5.24; in test [2], 0.19.

For `C=CC(=O)N1C/C(=C\c2ccccc2C)C(=O)/C(=C/c2ccccc2C)C1`, the IC50 worked out at 30 µM against Cholinesterase and 17.4 µM on Acetylcholinesterase. Further, the figures for the Ratio IC50 in test [1] and in test [2] were 1.73 and 0.58, respectively.

As for `C=CC(=O)N1C/C(=C\c2ccccc2OC)C(=O)/C(=C/c2ccccc2OC)C1`, the figures for the IC50 at Cholinesterase and against Acetylcholinesterase were 28.9 µM and 8.72 µM, respectively. Moreover, the Ratio IC50 in test [1] was found to be 3.32; in test [2], 0.3.

`C=CC(=O)N1C/C(=C\c2ccc(Cl)cc2Cl)C(=O)/C(=C/c2ccc(Cl)cc2Cl)C1`: the IC50 at Cholinesterase was 29.4 µM; against Acetylcholinesterase, 15.8 µM. Also, the Ratio IC50 in test [1] worked out at 1.86; in test [2], 0.54.

As for `C=CC(=O)N1C/C(=C\c2cccc3ccccc23)C(=O)/C(=C/c2cccc3ccccc23)C1`, the IC50 on Cholinesterase came out at 23.1 µM; at Acetylcholinesterase it was 13.8 µM. Besides, the figures for the Ratio IC50 in test [1] and in test [2] were 1.67 and 0.6, respectively.

Turning to `C=CC(=O)N1C/C(=C\c2ccc(F)cc2)C(=O)/C(=C/c2ccc(F)cc2)C1`, the figures for the IC50 against Cholinesterase and against Acetylcholinesterase were 30.6 µM and 15.1 µM, respectively. The Ratio IC50 is 2.02 in test [1] and 0.49 in test [2].

On to `C=CC(=O)N1C/C(=C\c2ccc(C)cc2)C(=O)/C(=C/c2ccc(C)cc2)C1`, for which the IC50 at Cholinesterase worked out at 35.1 µM; on Acetylcholinesterase it was 18.1 µM. Also, the Ratio IC50 in test [1] was 1.94; in test [2] it was 0.51.

As to `Cc1ccc(/C=C2\CN(C(=O)C[C@H]3C[C@H]4CCCN4[C@]34C(=O)Nc3ccccc34)C[C@@]3(C[C@H]4CCCN4[C@@]34C(=O)Nc3ccccc34)C2=O)cc1` (racemic), the figures for the IC50 against Cholinesterase and against Acetylcholinesterase were 17.9 µM and 19.6 µM, respectively. Also, the Ratio IC50 in test [1] is 0.91; in test [2], 1.1.

Take `O=C(C[C@H]1C[C@H]2CCCN2[C@]12C(=O)Nc1ccccc12)N1C/C(=C\c2ccc(Cl)cc2Cl)C(=O)[C@]2(C[C@H]3CCCN3[C@@]23C(=O)Nc2ccccc23)C1` (racemic): the values for the IC50 against Cholinesterase and on Acetylcholinesterase were 9.45 µM and 6.96 µM, respectively. Further, the values for the Ratio IC50 in test [1] and in test [2] were 1.36 and 0.74, respectively.

Consider `O=C(C[C@H]1C[C@H]2CCCN2[C@]12C(=O)Nc1ccccc12)N1C/C(=C\c2cccc([N+](=O)[O-])c2)C(=O)[C@]2(C[C@H]3CCCN3[C@@]23C(=O)Nc2ccccc23)C1` (racemic), for which the IC50 was 24.3 µM at Cholinesterase and 26.6 µM on Acetylcholinesterase. Besides, the Ratio IC50 in test [1] stood at 0.91; in test [2] it was 1.1.

With `O=C(C[C@H]1C[C@H]2CCCN2[C@]12C(=O)Nc1ccccc12)N1C/C(=C\c2ccccc2F)C(=O)[C@]2(C[C@H]3CCCN3[C@@]23C(=O)Nc2ccccc23)C1` (racemic), the IC50 against Cholinesterase amounted to 9.09 µM; on Acetylcholinesterase it was 24.6 µM. The Ratio IC50 in test [1] turned out to be 0.37; in test [2], 2.7.

Regarding `O=C(C[C@H]1C[C@H]2CCCN2[C@]12C(=O)Nc1ccccc12)N1C/C(=C\c2ccccc2Cl)C(=O)[C@]2(C[C@H]3CCCN3[C@@]23C(=O)Nc2ccccc23)C1` (racemic), the IC50 against Cholinesterase was 11.7 µM; at Acetylcholinesterase, 13.6 µM. Moreover, the Ratio IC50 in test [1] came out at 0.86; in test [2], 1.16.

For the compound `O=C(C[C@H]1C[C@H]2CCCN2[C@]12C(=O)Nc1ccccc12)N1C/C(=C\c2ccc(F)cc2)C(=O)[C@]2(C[C@H]3CCCN3[C@@]23C(=O)Nc2ccccc23)C1` (racemic), the IC50 on Cholinesterase came to 8.29 µM; against Acetylcholinesterase it was 23.7 µM. Moreover, the results for the Ratio IC50 in test [1] and in test [2] were 0.35 and 2.86, respectively.

In the case of `O=C(C[C@H]1C[C@H]2CCCN2[C@]12C(=O)Nc1ccccc12)N1C/C(=C\c2ccc(Cl)cc2)C(=O)[C@]2(C[C@H]3CCCN3[C@@]23C(=O)Nc2ccccc23)C1` (racemic), the IC50 on Cholinesterase came out at 10.9 µM; against Acetylcholinesterase, 7.92 µM. Moreover, the values for the Ratio IC50 in test [1] and in test [2] were 1.38 and 0.73, respectively.

On to `COc1ccccc1/C=C1\CN(C(=O)C[C@H]2C[C@H]3CCCN3[C@]23C(=O)Nc2ccccc23)C[C@@]2(C[C@H]3CCCN3[C@@]23C(=O)Nc2ccccc23)C1=O` (racemic), for which the IC50 on Cholinesterase was found to be 19.2 µM; on Acetylcholinesterase, 11.4 µM. Moreover, the Ratio IC50 in test [1] was found to be 1.68; in test [2], 0.59.

Take `Cc1ccccc1/C=C1\CN(C(=O)C[C@H]2C[C@H]3CCCN3[C@]23C(=O)Nc2ccccc23)C[C@@]2(C[C@H]3CCCN3[C@@]23C(=O)Nc2ccccc23)C1=O` (racemic): the IC50 against Cholinesterase is 13 µM; on Acetylcholinesterase, 27.5 µM. The Ratio IC50 was determined as 0.47 in test [1] and 2.12 in test [2].

As for `O=C(C[C@H]1C[C@H]2CCCN2[C@]12C(=O)Nc1ccccc12)N1C/C(=C\c2ccccc2)C(=O)[C@]2(C[C@H]3CCCN3[C@@]23C(=O)Nc2ccccc23)C1` (racemic), the IC50 on Cholinesterase is 18.2 µM; at Acetylcholinesterase it was 19.7 µM. Besides, the Ratio IC50 worked out at 0.93 in test [1] and 1.08 in test [2].

`O=C1/C(=C/c2cccc3ccccc23)CN(C(=O)C[C@H]2C[C@H]3CCCN3[C@]23C(=O)Nc2ccccc23)C/C1=C\c1cccc2ccccc12` (racemic): the IC50 at Cholinesterase turned out to be 11.8 µM; at Acetylcholinesterase, 6.76 µM. For the same compound, the Ratio IC50 in test [1] was found to be 1.74; in test [2], 0.57.

For the compound `O=C1/C(=C/c2ccccc2)CN(C(=O)C[C@H]2C[C@H]3CCCN3[C@]23C(=O)Nc2ccccc23)C/C1=C\c1ccccc1` (racemic), the IC50 came to 16.3 µM on Cholinesterase and 17.5 µM on Acetylcholinesterase. Further, the Ratio IC50 in test [1] stood at 0.93; in test [2], 1.07.

Take `Cc1ccccc1/C=C1\CN(C(=O)C[C@H]2C[C@H]3CCCN3[C@]23C(=O)Nc2ccccc23)C/C(=C\c2ccccc2C)C1=O` (racemic): the IC50 against Cholinesterase was determined as 17.8 µM; against Acetylcholinesterase, 12.5 µM. In addition, the Ratio IC50 in test [1] turned out to be 1.43; in test [2] it was 0.7.

`COc1ccccc1/C=C1\CN(C(=O)C[C@H]2C[C@H]3CCCN3[C@]23C(=O)Nc2ccccc23)C/C(=C\c2ccccc2OC)C1=O` (racemic): the IC50 on Cholinesterase came out at 9.41 µM; at Acetylcholinesterase, 15.9 µM. Further, the Ratio IC50 came to 0.59 in test [1] and 1.69 in test [2].

Consider `O=C1/C(=C/c2ccccc2Cl)CN(C(=O)C[C@H]2C[C@H]3CCCN3[C@]23C(=O)Nc2ccccc23)C/C1=C\c1ccccc1Cl` (racemic), for which the IC50 worked out at 19.7 µM on Cholinesterase and 11.9 µM at Acetylcholinesterase. Also, the Ratio IC50 was 1.66 in test [1] and 0.6 in test [2].

As for `O=C1/C(=C/c2ccccc2F)CN(C(=O)C[C@H]2C[C@H]3CCCN3[C@]23C(=O)Nc2ccccc23)C/C1=C\c1ccccc1F` (racemic), the IC50 on Cholinesterase amounted to 3.5 µM; on Acetylcholinesterase, 34.4 µM. Besides, the Ratio IC50 in test [1] came to 0.1; in test [2], 9.82.

In the case of `O=C1/C(=C/c2cccc([N+](=O)[O-])c2)CN(C(=O)C[C@H]2C[C@H]3CCCN3[C@]23C(=O)Nc2ccccc23)C/C1=C\c1cccc([N+](=O)[O-])c1` (racemic), the figures for the IC50 at Cholinesterase and against Acetylcholinesterase were 18.1 µM and 5.99 µM, respectively. Besides, the Ratio IC50 in test [1] turned out to be 3.03; in test [2], 0.33.

For the compound `O=C1/C(=C/c2ccc(Cl)cc2Cl)CN(C(=O)C[C@H]2C[C@H]3CCCN3[C@]23C(=O)Nc2ccccc23)C/C1=C\c1ccc(Cl)cc1Cl` (racemic), the IC50 against Cholinesterase amounted to 21.2 µM; at Acetylcholinesterase it was 4.11 µM. Further, the Ratio IC50 in test [1] amounted to 5.15; in test [2], 0.19.

For the compound `Cc1ccc(/C=C2\CN(C(=O)C[C@H]3C[C@H]4CCCN4[C@]34C(=O)Nc3ccccc34)C/C(=C\c3ccc(C)cc3)C2=O)cc1` (racemic), the IC50 at Cholinesterase amounted to 25.2 µM; on Acetylcholinesterase, 20.1 µM. Further, the figures for the Ratio IC50 in test [1] and in test [2] were 1.26 and 0.8, respectively.

In the case of `O=C1/C(=C/c2ccc(Cl)cc2)CN(C(=O)C[C@H]2C[C@H]3CCCN3[C@]23C(=O)Nc2ccccc23)C/C1=C\c1ccc(Cl)cc1` (racemic), the IC50 at Cholinesterase was determined as 32.3 µM; at Acetylcholinesterase, 3.36 µM. The Ratio IC50 stood at 9.6 in test [1] and 0.1 in test [2].

`O=C1/C(=C/c2ccc(F)cc2)CN(C(=O)C[C@H]2C[C@H]3CCCN3[C@]23C(=O)Nc2ccccc23)C/C1=C\c1ccc(F)cc1` (racemic): the half-maximal inhibitory concentration (IC50) amounted to 3.99 µM against Cholinesterase and 19.8 µM against Acetylcholinesterase. Besides, the results for the Ratio IC50 in test [1] and in test [2] were 0.2 and 4.97, respectively.

As to `O=C(C[C@H]1C[C@H]2CCCN2[C@]12C(=O)Nc1ccccc12)N1C/C(=C\c2cccc3ccccc23)C(=O)[C@]2(C[C@H]3CCCN3[C@@]23C(=O)Nc2ccccc23)C1` (racemic), the IC50 against Cholinesterase was 6.42 µM; against Acetylcholinesterase, 20.6 µM. For the same compound, the figures for the Ratio IC50 in test [1] and in test [2] were 0.31 and 3.21, respectively.
